Test results: ChEMBL document CHEMBL3085714 (J Med Chem, 2013)

Experiments:
Homo sapiens [1] = species: Homo sapiens; assay: Selectivity for p38alpha MAP kinase (unknown origin) over PCTAIRE1 (unknown origin)
Homo sapiens [2] = species: Homo sapiens; assay: Selectivity for p38alpha MAP kinase (unknown origin) over MET F1200I mutant (unknown origin)
Homo sapiens [3] = species: Homo sapiens; assay: Selectivity for p38alpha MAP kinase (unknown origin) over PKC-zeta (unknown origin)
Homo sapiens [4] = species: Homo sapiens; assay: Selectivity for p38alpha MAP kinase (unknown origin) over STK25 (unknown origin)
Homo sapiens [5] = species: Homo sapiens; assay: Selectivity for p38alpha MAP kinase (unknown origin) over MERTK (unknown origin)
Homo sapiens [6] = species: Homo sapiens; assay: Selectivity for p38alpha MAP kinase (unknown origin) over NEK4 (unknown origin)
Homo sapiens [7] = species: Homo sapiens; assay: Selectivity for p38alpha MAP kinase (unknown origin) over EPHB2 (unknown origin)
Homo sapiens [8] = species: Homo sapiens; assay: Selectivity for p38alpha MAP kinase (unknown origin) over IGF1-R (unknown origin)
Homo sapiens [9] = species: Homo sapiens; assay: Selectivity for p38alpha MAP kinase (unknown origin) over CDC42BPB (unknown origin)
Homo sapiens [10] = species: Homo sapiens; assay: Selectivity for p38alpha MAP kinase (unknown origin) over SGK3 (unknown origin)
Homo sapiens [11] = species: Homo sapiens; assay: Selectivity for p38alpha MAP kinase (unknown origin) over FGF-R2 (unknown origin)
Homo sapiens [12] = species: Homo sapiens; assay: Selectivity for p38alpha MAP kinase (unknown origin) over SNF1LK2 (unknown origin)
[13] = biological target: T1, Mitogen-activated protein kinase 14 (Homo sapiens, UniProt Q16539); assay: Competitive inhibition of p38alpha MAP kinase (unknown origin) in presence of 100 uM ATP
T1 sequence (Q16539 whole entry): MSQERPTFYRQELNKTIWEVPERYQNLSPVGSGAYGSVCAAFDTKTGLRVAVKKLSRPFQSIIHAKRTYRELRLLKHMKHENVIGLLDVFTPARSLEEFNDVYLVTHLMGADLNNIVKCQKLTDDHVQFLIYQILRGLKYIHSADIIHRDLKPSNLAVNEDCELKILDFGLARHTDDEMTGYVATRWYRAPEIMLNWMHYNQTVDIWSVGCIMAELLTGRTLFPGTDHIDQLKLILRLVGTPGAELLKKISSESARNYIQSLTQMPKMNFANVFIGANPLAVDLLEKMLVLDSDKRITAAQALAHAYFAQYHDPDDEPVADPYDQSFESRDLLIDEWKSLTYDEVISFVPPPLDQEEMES

Homo sapiens [14] = species: Homo sapiens; assay: Selectivity for p38alpha MAP kinase (unknown origin) over mTOR (unknown origin)
Homo sapiens [15] = species: Homo sapiens; assay: Selectivity for p38alpha MAP kinase (unknown origin) over DAPK2 (unknown origin)
Homo sapiens [16] = species: Homo sapiens; assay: Selectivity for p38alpha MAP kinase (unknown origin) over PKC-nu (unknown origin)
Homo sapiens [17] = species: Homo sapiens; assay: Selectivity for p38alpha MAP kinase (unknown origin) over RIPK2 (unknown origin)
Homo sapiens [18] = species: Homo sapiens; assay: Selectivity for p38alpha MAP kinase (unknown origin) over WNK2 (unknown origin)
Homo sapiens [19] = species: Homo sapiens; assay: Selectivity for p38alpha MAP kinase (unknown origin) over CDK1/CycB1 (unknown origin)
Homo sapiens [20] = species: Homo sapiens; assay: Selectivity for p38alpha MAP kinase (unknown origin) over DNA-PK (unknown origin)
[21] = biological target: T1, Mitogen-activated protein kinase 14; assay: Competitive inhibition of p38alpha MAP kinase (unknown origin) at 10 uM in presence of 100 uM ATP
Homo sapiens [22] = species: Homo sapiens; assay: Selectivity for p38alpha MAP kinase (unknown origin) over TTK (unknown origin)
Homo sapiens [23] = species: Homo sapiens; assay: Selectivity for p38alpha MAP kinase (unknown origin) over FLT3 D835Y mutant (unknown origin)
Homo sapiens [24] = species: Homo sapiens; assay: Selectivity for p38alpha MAP kinase (unknown origin) over EPHB1 (unknown origin)
Homo sapiens [25] = species: Homo sapiens; assay: Selectivity for p38alpha MAP kinase (unknown origin) over CHK1 (unknown origin)
Homo sapiens [26] = species: Homo sapiens; assay: Selectivity for p38alpha MAP kinase (unknown origin) over IKK-alpha (unknown origin)
Homo sapiens [27] = species: Homo sapiens; assay: Selectivity for p38alpha MAP kinase (unknown origin) over EGFR 747 to 752 deletion/P753S mutant (unknown origin)
Homo sapiens [28] = species: Homo sapiens; assay: Selectivity for p38alpha MAP kinase (unknown origin) over ABL1 E255K mutant (unknown origin)
Homo sapiens [29] = species: Homo sapiens; assay: Selectivity for p38alpha MAP kinase (unknown origin) over PDGFR-alpha V561D mutant (unknown origin)
[30] = biological target: Mitogen-activated protein kinase 11 (Homo sapiens) (UniProt Q15759); assay: Inhibition of p38beta MAP kinase (unknown origin) at 10 uM
Sequence of Mitogen-activated protein kinase 11 (Homo sapiens) (Q15759 whole entry): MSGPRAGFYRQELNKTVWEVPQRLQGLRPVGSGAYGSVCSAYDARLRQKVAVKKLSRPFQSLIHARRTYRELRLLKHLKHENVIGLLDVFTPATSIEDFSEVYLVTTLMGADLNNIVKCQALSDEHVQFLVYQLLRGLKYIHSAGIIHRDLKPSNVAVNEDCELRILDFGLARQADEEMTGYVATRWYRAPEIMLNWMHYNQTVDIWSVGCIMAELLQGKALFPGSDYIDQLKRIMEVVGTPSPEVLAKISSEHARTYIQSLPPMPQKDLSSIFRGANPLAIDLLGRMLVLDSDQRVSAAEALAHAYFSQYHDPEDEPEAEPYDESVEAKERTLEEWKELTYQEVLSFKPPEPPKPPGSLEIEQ

Homo sapiens [31] = species: Homo sapiens; assay: Selectivity for p38alpha MAP kinase (unknown origin) over STK23 (unknown origin)
Homo sapiens [32] = species: Homo sapiens; assay: Selectivity for p38alpha MAP kinase (unknown origin) over MST2 (unknown origin)
Homo sapiens [33] = species: Homo sapiens; assay: Selectivity for p38alpha MAP kinase (unknown origin) over wild type FGFR1 (unknown origin)
Homo sapiens [34] = species: Homo sapiens; assay: Selectivity for p38alpha MAP kinase (unknown origin) over MET Y1230H mutant (unknown origin)
Homo sapiens [35] = species: Homo sapiens; assay: Selectivity for p38alpha MAP kinase (unknown origin) over PKC-iota (unknown origin)
Homo sapiens [36] = species: Homo sapiens; assay: Selectivity for p38alpha MAP kinase (unknown origin) over TGFB-R2 (unknown origin)
Homo sapiens [37] = species: Homo sapiens; assay: Selectivity for p38alpha MAP kinase (unknown origin) over SRPK1 (unknown origin)
Homo sapiens [38] = species: Homo sapiens; assay: Selectivity for p38alpha MAP kinase (unknown origin) over VEGF-R3 (unknown origin)
Homo sapiens [39] = species: Homo sapiens; assay: Selectivity for p38alpha MAP kinase (unknown origin) over PYK2 (unknown origin)
Homo sapiens [40] = species: Homo sapiens; assay: Selectivity for p38alpha MAP kinase (unknown origin) over RET V804L mutant (unknown origin)
[41] = biological target: T1, Mitogen-activated protein kinase 14; assay: Inhibition of p38alpha MAP kinase in human whole blood assessed as inhibition of LPS-induced TNFalpha release by ELISA
Homo sapiens [42] = species: Homo sapiens; assay: Selectivity for p38alpha MAP kinase (unknown origin) over TIE2 (unknown origin)
Homo sapiens [43] = species: Homo sapiens; assay: Selectivity for p38alpha MAP kinase (unknown origin) over ZAK (unknown origin)
Homo sapiens [44] = species: Homo sapiens; assay: Selectivity for p38alpha MAP kinase (unknown origin) over FLT3 ITD (unknown origin)

Cc1cc(F)c(NC(=O)c2ccsc2)cc1Nc1ccc2c(c1)OCc1ccc(OC[C@H](O)CO)cc1C2=O
Selectivity ratio (Homo sapiens [1]): > 1000 | Selectivity ratio (Homo sapiens [2]): > 1000 | Selectivity ratio (Homo sapiens [3]): > 1000 | Selectivity ratio (Homo sapiens [4]): > 1000 | Selectivity ratio (Homo sapiens [5]): > 1000 | Selectivity ratio (Homo sapiens [6]): > 1000 | Selectivity ratio (Homo sapiens [7]): > 1000 | Selectivity ratio (Homo sapiens [8]): > 1000 | Selectivity ratio (Homo sapiens [9]): > 1000 | Selectivity ratio (Homo sapiens [10]): > 1000 | Selectivity ratio (Homo sapiens [11]): > 1000 | Selectivity ratio (Homo sapiens [12]): > 1000 | IC50 [13]: 1.6 nM | Selectivity ratio (Homo sapiens [14]): > 1000 | Selectivity ratio (Homo sapiens [15]): > 1000 | Selectivity ratio (Homo sapiens [16]): > 1000 | Selectivity ratio (Homo sapiens [17]): > 1000 | Selectivity ratio (Homo sapiens [18]): > 1000 | Selectivity ratio (Homo sapiens [19]): > 1000 | Selectivity ratio (Homo sapiens [20]): > 1000 | inhibition [21]: > 50% | Selectivity ratio (Homo sapiens [22]): > 1000 | Selectivity ratio (Homo sapiens [23]): > 1000 | Selectivity ratio (Homo sapiens [24]): > 1000 | Selectivity ratio (Homo sapiens [25]): > 1000 | Selectivity ratio (Homo sapiens [26]): > 1000 | Selectivity ratio (Homo sapiens [27]): > 1000 | Selectivity ratio (Homo sapiens [28]): > 1000 | Selectivity ratio (Homo sapiens [29]): > 1000 | inhibition [30]: > 50% | Selectivity ratio (Homo sapiens [31]): > 1000 | Selectivity ratio (Homo sapiens [32]): > 1000 | Selectivity ratio (Homo sapiens [33]): > 1000 | Selectivity ratio (Homo sapiens [34]): > 1000 | Selectivity ratio (Homo sapiens [35]): > 1000 | Selectivity ratio (Homo sapiens [36]): > 1000 | Selectivity ratio (Homo sapiens [37]): > 1000 | Selectivity ratio (Homo sapiens [38]): > 1000 | Selectivity ratio (Homo sapiens [39]): > 1000 | Selectivity ratio (Homo sapiens [40]): > 1000 | IC50 [41]: 125 nM | Selectivity ratio (Homo sapiens [42]): > 1000 | Selectivity ratio (Homo sapiens [43]): > 1000 | Selectivity ratio (Homo sapiens [44]): > 1000
